Measured values reported in patent publication EP3064205A1, “Therapeutic use of isomeric forms of 2-(4-chlorophenyl)quinolin-4-yl)(piperidin-2-yl)methanol” (Glionova AB, priority 2015, dated 2016).
Read-outs that look alike come from different tables or passages of the source.

Columns and labels:
Assay in all cases: 3D clonogenic assay (PDX)
Format in all cases: cell-based, human
LXFA 289 = conditions: LXFA 289, Lung Adeno; for IC50: Homo sapiens
In short: (§1)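 Tumor xenografts are dissociated with a collagenase/DNase/hyaluronidase/dispase cocktail, and the cells are frozen, then thawed and embedded in 0.4% agar over a 0.75% agar base. Compound is added at day 1 and left on continuously for 8–13 days. IC50 is taken as the curve inflection point or as the concentration at T/C = 50%.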

LXFL 1674 = conditions: LXFL 1674, Lung Large Cell; for IC50: Homo sapiens
In short: as §1

HNXF 536 = conditions: HNXF 536, Head and Neck; for IC50: Homo sapiens
In short: as §1

MAXF 1162 = conditions: MAXF 1162, Breast; for IC50: Homo sapiens
In short: as §1

BXF 1352 = conditions: BXF 1352, Bladder; for IC50: Homo sapiens
In short: as §1

LXFA 983 = conditions: LXFA 983, Lung Adeno; for IC50: Homo sapiens
In short: as §1

MEXF 274 = conditions: MEXF 274, Melanoma; for IC50: Homo sapiens
In short: as §1

RXF 1220 = conditions: RXF 1220, Renal; for IC50: Homo sapiens
In short: as §1

GXF 1172 = conditions: GXF 1172, Gastric; for IC50: Homo sapiens
In short: as §1

RXF 486 = conditions: RXF 486, Renal; for IC50: Homo sapiens
In short: as §1

PXF 1752 = conditions: PXF 1752, Pleuramesothelioma; for IC50: Homo sapiens
In short: as §1

LXFA 1647 = conditions: LXFA 1647, Lung Adeno; for IC50: Homo sapiens
In short: as §1

## O[C@H](c1cc(-c2ccc(Cl)cc2)nc2ccccc12)[C@@H]1CCCCN1 [S1, (R)-(2-(4-chlorophenyl)quinolin-4-yl)((S)-piperidin-2-yl)methanol]
LXFA 289; read-out: abs. IC50
  IC50: 45.4 µM
LXFA 289; read-out: rel. IC50
  IC50: 39.3 µM
LXFA 289
  b (bottom plateau of concentration-effect curve): 21
  t (top plateau of concentration-effect curve): 94
LXFL 1674; read-out: abs. IC50
  IC50: 6.68 µM
LXFL 1674; read-out: rel. IC50
  IC50: 6.59 µM
LXFL 1674
  b (bottom plateau of concentration-effect curve): 9
  t (top plateau of concentration-effect curve): 93
HNXF 536
  b (bottom plateau of concentration-effect curve): 14
  t (top plateau of concentration-effect curve): 99
HNXF 536; read-out: abs. IC50
  IC50: 8.21 µM
HNXF 536; read-out: rel. IC50
  IC50: 7.47 µM
MAXF 1162; read-out: abs. IC50
  IC50: 4.64 µM
MAXF 1162; read-out: rel. IC50
  IC50: 4.63 µM
MAXF 1162
  b (bottom plateau of concentration-effect curve): 12
  t (top plateau of concentration-effect curve): 90
BXF 1352
  b (bottom plateau of concentration-effect curve): 0
  t (top plateau of concentration-effect curve): 97
BXF 1352; read-out: abs. IC50
  IC50: 18.5 µM
BXF 1352; read-out: rel. IC50
  IC50: 19 µM
LXFA 983; read-out: abs. IC50
  IC50: 4.81 µM
LXFA 983; read-out: rel. IC50
  IC50: 4.6 µM
LXFA 983
  b (bottom plateau of concentration-effect curve): 30
  t (top plateau of concentration-effect curve): 96
MEXF 274; read-out: abs. IC50
  IC50: 8.84 µM
MEXF 274; read-out: rel. IC50
  IC50: 8.69 µM
MEXF 274
  b (bottom plateau of concentration-effect curve): 17
  t (top plateau of concentration-effect curve): 103
RXF 1220; read-out: abs. IC50
  IC50: 43.3 µM
RXF 1220; read-out: rel. IC50
  IC50: 43.4 µM
RXF 1220
  b (bottom plateau of concentration-effect curve): 0
  t (top plateau of concentration-effect curve): 99
GXF 1172
  b (bottom plateau of concentration-effect curve): 28
  t (top plateau of concentration-effect curve): 79
GXF 1172; read-out: abs. IC50
  IC50: 12.8 µM
GXF 1172; read-out: rel. IC50
  IC50: 12.5 µM
RXF 486; read-out: abs. IC50
  IC50: 12.8 µM
RXF 486; read-out: rel. IC50
  IC50: 12.7 µM
RXF 486
  b (bottom plateau of concentration-effect curve): 5
  t (top plateau of concentration-effect curve): 97
PXF 1752; read-out: abs. IC50
  IC50: 8.98 µM
PXF 1752; read-out: rel. IC50
  IC50: 8.85 µM
PXF 1752
  b (bottom plateau of concentration-effect curve): 15
  t (top plateau of concentration-effect curve): 109
LXFA 1647; read-out: abs. IC50
  IC50: 12.1 µM
LXFA 1647; read-out: rel. IC50
  IC50: 11.9 µM
LXFA 1647
  b (bottom plateau of concentration-effect curve): 13
  t (top plateau of concentration-effect curve): 98
